These results are taken from patent US9795140B2, “Molecules having pesticidal utility, and intermediates, compositions, and processes, related thereto” (priority 2015, dated 2017).

Type in all cases: in vivo
In data set [1] the test system is Beet Armyworm (Spodoptera exigua, LAPHEG). Briefly: Bioassay on Beet Armyworm (BAW), 128-well diet tray assay. The conditions noted are these: 168 h, 50 μg/cm^2 on artificial diet, second instar larvae, 25° C., five to seven days, average of eight wells, read-out: BAW % Control (or Mortality) rating. The essentials: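 Second instar larvae were exposed to diet treated at 50 μg/cm^2 for five to seven days at 25° C.; mortality was averaged over eight wells.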

Data set [2] has as its system Cabbage Looper (Trichoplusia ni, TRIPNI). Briefly: Bioassay on Cabbage Looper (CL), 128-well diet tray assay. The conditions noted are these: 168 h, 50 μg/cm^2 on artificial diet, second instar larvae, 25° C., five to seven days, average of eight wells, read-out: CL % Control (or Mortality) rating. The essentials: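 Second-instar T. ni larvae (one to five per well) were placed on artificial diet treated with 50 μg/cm^2 compound, applied in 90:10 acetone-water and dried. Trays were held five to seven days at 25 °C under 14:10 light-dark. Percent mortality per well was averaged over eight wells.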

Data set [3] relates to Green Peach Aphid (Myzus persicae, MYZUPE). Briefly: Bioassay on Green Peach Aphid (GPA), foliar spray on cabbage seedlings. The settings on record: 72 h, 200 ppm spray on infested cabbage seedlings, three days, Abbott corrected % control, read-out: GPA % Control (or Mortality) rating. In short, it runs like this:
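Percent control (Abbott-corrected versus solvent-sprayed plants) comes from live-aphid counts three days after treatment at about 25° C. Test solution at 200 ppm was sprayed to runoff onto both leaf surfaces of cabbage seedlings infested a day earlier with 20-50 aphids; four replicate pots.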

For data set [4], the system named is Yellow Fever Mosquito (Aedes aegypti, AEDSAE). In words: Bioassay on Yellow Fever Mosquito (YFM) larvae, 96-well plate. The conditions noted are these: about 1 day-old larvae, room temperature, 3 days, scored on mortality. The essentials: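 Each well was scored for mortality after 3 days at room temperature under a non-evaporative lid. Test molecules came from DMSO masters (4000 ppm stock) diluted with water/acetone 90:10 and dispensed into six replicate plates, which were then infested with roughly 1-day-old larvae in liver-powder water.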

Regarding `O=C(NCCc1ccc(F)cc1)c1cc(NC(=O)C2C(c3cc(Cl)cc(Cl)c3)C2(Cl)Cl)ccc1Cl` (stereo not drawn) [F19, trans-N-2-Chloro-5-(2,2-dichloro-3-(3,5-dichlorophenyl)cyclopropane-1-carboxamido)-N-(4-fluorophenethyl)benzamide], the mortality at 50 µg/cm2 in data set [1] and in data set [2] was 50 to 100% throughout. The mortality (in general, the share of the test organisms that died) at 200 ppm in data set [3] lay within 0 to 80%. For the same molecule, the “YFM % Control (or Mortality) rating” value in data set [4] was “A (80-100)”.
With `O=C(NCCc1ccc(F)cc1)c1cc(NC(=O)C2C(c3cc(Cl)c(Cl)c(Cl)c3)C2(Cl)Cl)ccc1Cl` (stereo not drawn) [F20, trans-N-2-Chloro-5-(2,2-dichloro-3-(3,4,5-trichlorophenyl)cyclopropane-1-carboxamido)-N-(4-fluorophenethyl)benzamide], the mortality at 50 µg/cm2 in data set [1] and in data set [2] was 50 to 100% each time. Moreover, in data set [3], the mortality at 200 ppm fell in the range of 0 to 80%. For the same molecule, the “YFM % Control (or Mortality) rating” value in data set [4] is on record as “A (80-100)”.
Take `O=C(NOCC1CC1(F)F)c1cc(NC(=O)C2C(c3cc(Cl)cc(Cl)c3)C2(Cl)Cl)ccc1Cl` (stereo not drawn) [F21, trans-N-2-Chloro-5-(2,2-dichloro-3-(3,5-dichlorophenyl)cyclopropane-1-carboxamido)-N-((2,2-difluorocyclopropyl)methoxy)benzamide]: the mortality at 50 µg/cm2 in data set [1] and in data set [2] was 50 to 100% in each case. Moreover, the mortality at 200 ppm in data set [3] lay in the range of 0 to 80%. For the same molecule, the “YFM % Control (or Mortality) rating” value in data set [4] is recorded as “B (More than 0-Less than 80)”.
On to `O=C(NOCC1CC1(F)F)c1cc(NC(=O)C2C(c3ccc(Cl)c(Cl)c3)C2(Cl)Cl)ccc1Cl` (stereo not drawn) [F22, trans-N-2-Chloro-5-(2,2-dichloro-3-(3,4-dichlorophenyl)cyclopropane-1-carboxamido)-N-((2,2-difluorocyclopropyl)methoxy)benzamide], for which the mortality at 50 µg/cm2 in data set [1] and in data set [2] was 50 to 100% each time. Further, in data set [3], the mortality at 200 ppm fell in the range of 80 to 100%. The “YFM % Control (or Mortality) rating” value in data set [4] was “B (More than 0-Less than 80)”.
Take `O=C(NOCC1CC1(F)F)c1cc(NC(=O)C2C(c3cc(Cl)c(Cl)c(Cl)c3)C2(Cl)Cl)ccc1Cl` (stereo not drawn) [F23, trans-N-2-Chloro-5-(2,2-dichloro-3-(3,4,5-trichlorophenyl)cyclopropane-1-carboxamido)-N-((2,2-difluorocyclopropyl)methoxy)benzamide]: the mortality at 50 µg/cm2 in data set [1] and in data set [2] was 50 to 100% throughout. Moreover, in data set [3], the mortality at 200 ppm lay in the range of 80 to 100%. For the same molecule, the “YFM % Control (or Mortality) rating” value in data set [4] is “B (More than 0-Less than 80)”.
Take `CC(C)(C)c1ccc(CNC(=O)c2cc(NC(=O)C3C(c4cc(Cl)cc(Cl)c4)C3(Cl)Cl)ccc2Cl)cc1` (stereo not drawn) [F36, trans-N-(4-(tert-Butylbenzyl)-2-chloro-5-(2,2-dichloro-3-(3,5-dichlorophenyl)cyclopropane-1-carboxamido)benzamide]: the mortality at 50 µg/cm2 in data set [1] and in data set [2] was 0% each time. For the same molecule, in data set [3], the mortality at 200 ppm worked out at 0%. The “YFM % Control (or Mortality) rating” value in data set [4] is “B (More than 0-Less than 80)”.
